The numbers were not newly measured in patent US20240269083A1, “PROLONGED-RELEASE PHARMACEUTICAL COMPOSITION FOR ORAL ADMINISTRATION OF SULTIAME” (ADVICENNE, priority 2021, published 2024), which cites them from elsewhere.

This data set concerns erythrocytes. The conditions noted are these: single doses of Ospolot, fasting, healthy subjects.

Consider `NS(=O)(=O)c1ccc(N2CCCCS2(=O)=O)cc1` [sultiame, Sultiame], for which the affinity for erythrocytes result is reported as “very strong affinity for erythrocytes”.
